Data published in patent US20140363838A1, “MICROPERFUSION IMAGING PLATFORM” (William Marsh Rice University, priority 2013, published 2014).
Values after ≈ are worked out from the molar mass of the structure shown.

How the values were obtained:
MDA-MB-468 cells [1] = experiment: live/dead (calcein-AM/EthD-1) viability assay, microcarrier format on pBNC device; format: cell-based; conditions: Homo sapiens, BNC assays, microcarriers, 24 hour doxorubicin exposure, composite of 3 assays, read-out: Computed IC50 of composite dose curve (percent viability from EthD-1 intensity)
Experimental: Microcarriers cultured with MDA-MB-468 cells were harvested after 5-6 days of static culture with regular media exchanges every 48 hours. Doxorubicin solutions were prepared in fresh, warm media in volumes of 1 mL and added to aliquots of about 200 μL microcarriers and statically incubated for 24 hours at 37° C. Each aliquot was transferred to a sterile 2 ml micro-centrifuge tube where the microcarriers were allowed to settle. After supernatant was removed, microcarriers were rinsed in warm PBS, and incubated in fresh media at 37° C. until assayed. Negative control microcarriers were prepared by replacing this media with 70% methanol and incubating at room temperature for 30 minutes, and then suspended in PBS.
For each assay performed in triplicate (on a prior card embodiment with outlets at the bottom of the card), 4 negative control microcarriers were placed in the 4 outer corners of a 3×4 array of micro-containers through careful manipulation with precision forceps. […]
Images were acquired using a monochrome DVC camera connected to an Olympus BX-2 microscope (Center Valley, Pa.) with a 4× objective at a single focal plane at the top of the microcarriers. […] Intensities for both FITC and TxRed channels were measured separately, using a custom written ImageJ macro that extracts the average of the maxima of a series of line profile scans down each microcarrier. […]

MDA-MB-468 cells [2] = experiment: live/dead (calcein-AM/EthD-1) viability assay, monolayer 96-well plate, fluorescence plate reader; format: cell-based; conditions: Homo sapiens, 96-well plate assays, 24 hour doxorubicin exposure, composite of 3 assays, read-out: Computed IC50 of composite dose curve (percent viability from EthD-1 intensity)
Experimental: Negative and positive controls were included as columns in each plate for the 96-well plate assays. Four negative control microcarriers were included in each assay on the BNC platform and one positive control assay served as the positive control for determining percent viability. Dose curves were plotted using a 5-parameter curve fitting algorithm in MATLAB (MATHWORKS®).
An equivalent viability assay was performed using standard 96-well plates for comparative purposes. Cells were seeded on 3, 96-well plates (CORNING®) at a final seeding density of about 10,000 cells per well. Plates were incubated at 37° C., 5% CO2 for 72 hours before media was exchanged for doxorubicin-containing media and incubated for an additional 24 hours. Negative control columns on each plate were prepared by replacing media with 70% methanol and incubating for 30 minutes at 37° C. Before imaging, all media was removed and cells were washed with warm PBS and replaced with a calcein-AM/EthD-1 solution with the same concentration as in the pBNC assay. […] A single point scan was performed on each well at excitation/emission wavelengths (nm) of 485/530 for calcein-AM and 530/645 for EthD-1.

[3] = system: cells on spheroid microcarrier; experiment: doxorubicin uptake, chip versus plate/static, by Z depth; format: cell-based
MDA-MB-468 cells [4] = experiment: equivalent nuclear assay (fixed cells, DAPI staining) in monolayer
MDA-MB-468 cells [5] = experiment: nuclear analysis (fixed cells, DAPI staining) of microcarriers on pBNC platform

## COc1cccc2c1C(=O)c1c(O)c3c(c(O)c1C2=O)C[C@@](O)(C(=O)CO)C[C@@H]3O[C@H]1C[C@H](N)[C@H](O)[C@H](C)O1 [doxorubicin]
MDA-MB-468 cells [1]
  IC50: 4 µg/mL (≈ 7.36 µM)
MDA-MB-468 cells [2]
  IC50: 10 µg/mL (≈ 18.4 µM)
[3]; 2 hours incubation, observed for both chip and plate platforms
  doxorubicin penetration into spheroid microcarrier cell layers (z-slices): only able to penetrate through a few outer layers of cells
[3]; chip vs static, FIG. 14
  doxorubicin uptake, chip compared with static: highly comparable
MDA-MB-468 cells [4]; 100 μg/mL doxorubicin, 24 hour exposure, monolayer
  cells remaining attached (identified nuclear counts): no monolayer cells remained attached
MDA-MB-468 cells [4]; monolayer format, increasing doxorubicin concentration
  average uncorrected nuclear compactness: increase in the average uncorrected compactness
MDA-MB-468 cells [4]; monolayer platform, across 10.000-fold doxorubicin concentration range
  average nuclear area: increases for low concentrations of doxorubicin and decreases for higher concentrations
MDA-MB-468 cells [4]; monolayer platform, high doxorubicin concentrations (10 μg/mL)
  distribution of average DAPI intensity of nuclei: shift in the distribution of DAPI intensities towards lower intensities
MDA-MB-468 cells [5]; 100 μg/mL doxorubicin, 24 hour exposure, Cytodex I microcarriers
  cells remaining attached (identified nuclear counts): some cells remained attached
MDA-MB-468 cells [5]; increasing doxorubicin concentrations, both counting methods
  total cell population (DAPI-stained nuclei / live-dead cell counting): decrease in total cell population
MDA-MB-468 cells [5]; microcarrier format, increasing doxorubicin concentration
  average uncorrected nuclear compactness: increase in the average uncorrected compactness
MDA-MB-468 cells [5]; microcarrier platform, across 10.000-fold doxorubicin concentration range
  average nuclear area: increases for low concentrations of doxorubicin and decreases for higher concentrations
MDA-MB-468 cells [5]; microcarrier platform, high doxorubicin concentrations (10 μg/mL)
  distribution of average DAPI intensity of nuclei: shift in the distribution of DAPI intensities towards lower intensities
